Where a name gives a salt, the structure may show the parent alone.
Biological target: T1, hGIP-R (Homo sapiens, UniProt P48546)
T1 construct: expressed in transfected cells; host or cells: HEK-293 clonal cell lines
T1 sequence (P48546 22-466): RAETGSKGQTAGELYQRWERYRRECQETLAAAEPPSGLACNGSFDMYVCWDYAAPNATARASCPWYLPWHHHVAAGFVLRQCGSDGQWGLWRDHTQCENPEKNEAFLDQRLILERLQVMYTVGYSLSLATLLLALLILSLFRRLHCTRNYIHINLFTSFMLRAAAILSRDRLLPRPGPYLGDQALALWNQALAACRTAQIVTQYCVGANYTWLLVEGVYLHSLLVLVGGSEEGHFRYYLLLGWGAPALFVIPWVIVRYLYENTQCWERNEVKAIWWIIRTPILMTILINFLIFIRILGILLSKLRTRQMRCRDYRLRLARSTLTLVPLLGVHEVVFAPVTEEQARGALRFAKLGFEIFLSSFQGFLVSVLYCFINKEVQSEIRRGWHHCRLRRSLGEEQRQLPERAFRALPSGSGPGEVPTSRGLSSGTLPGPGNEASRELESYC
Experiment: Functional hGIP-R Assay (cAMP formation, HTRF)
Format: cell-based
Details: for Emax: cAMP efficacy, percent of maximal response to GIP(1-42)OH, 37° C., 0.1% bovine casein, arithmetic mean ± SEM; for EC50: cAMP potency, HEK-293 cells expressing hGIP-R, incubated at 37° C. in the presence of 0.1% bovine casein, geometric mean, read-out: Human GIP-R EC50, nM (SEM, n)
In short: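 Relative EC50 and Emax came from four-parameter logistic fits of cAMP as a percent of the human GIP (1-42) OH maximal response. The cAMP was measured by competitive HTRF after 30 min, 37 °C compound exposure of hGIP-R HEK-293 clones in IBMX (250 μM)-containing medium.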

`Cn1cc2cc(-c3ccc([C@H]4C[C@@]45CCN([C@H](Cc4cnn(C(F)F)c4)C(=O)NC(C)(C)Cn4nc(C(F)(F)F)cc4-c4ccc(OC(F)F)nn4)C5=O)cc3)cnc2n1` [Example 121, (R)-N-(1-(5-(6-(Difluoromethoxy)pyridazin-3-yl)-3-(trifluoromethyl)-1H-pyrazol-1-yl)-2-methylpropan-2-yl)-3-(1-(difluoromethyl)-1H-pyrazol-4-yl)-2-((1R,3R)-1-(4-(2-methyl-2H-pyrazolo[3,4-b]pyridin-5-yl)phenyl)-4-oxo-5-azaspiro[2.4]heptan-5-yl)propanamide] gave an Emax of 74.6 ± 1.47% and an EC50 of 107 nM.
Work on `CCn1cc2cc(-c3ccc([C@H]4C[C@@]45CCN([C@H](Cc4cnn(C(F)F)c4)C(=O)NC(C)(C)Cn4nc(C(F)(F)F)cc4-c4cnc(C(C)(C)O)nc4)C5=O)c(C)n3)cnc2n1` [Example 164, (R)-3-(1-(difluoromethyl)-1H-pyrazol-4-yl)-2-((1R,3R)-1-(6-(2-ethyl-2H-pyrazolo[3,4-b]pyridin-5-yl)-2-methylpyridin-3-yl)-4-oxo-5-azaspiro[2.4]heptan-5-yl)-N-(1-(5-(2-(2-hydroxypropan-2-yl)pyrimidin-5-yl)-3-(trifluoromethyl)-1H-pyrazol-1-yl)-2-methylpropan-2-yl)propanamide] yielded an Emax of 53.3 ± 0.286% and an EC50 of 4.31 nM.
In the case of `COc1ccc(-c2ccc([C@H]3C[C@@]34CCN([C@H](Cc3cnn(C(F)F)c3)C(=O)NC(C)(C)Cn3nc(C(F)(F)F)cc3-c3ccn(C5CC5)c(=O)c3)C4=O)c(C)n2)cn1` [Example 172, (R)-N-(1-(5-(1-cyclopropyl-2-oxo-1,2-dihydropyridin-4-yl)-3-(trifluoromethyl)-1H-pyrazol-1-yl)-2-methylpropan-2-yl)-3-(1-(difluoromethyl)-1H-pyrazol-4-yl)-2-((1R,3R)-1-(6′-methoxy-6-methyl-[2,3′-bipyridin]-5-yl)-4-oxo-5-azaspiro[2.4]heptan-5-yl)propanamide], the Emax is reported as 12.6 ± 0.102% and the EC50 is reported as 3.16 nM.
`Cn1cc(-c2cc(C(F)(F)F)nn2CC(C)(C)NC(=O)[C@@H](Cc2cnn(C(F)F)c2)NC(=O)[C@H]2C[C@@H]2c2ccc3c(c2)n(C)c(=O)n3C)cc(F)c1=O` [Example 182] showed an Emax of 30.4 ± 2.08% and an EC50 of 41.4 nM.
In the case of `Cc1cn2cc(-c3ccc([C@H]4C[C@@]45CCN([C@H](Cc4cnn(C(F)F)c4)C(=O)NC(C)(C)Cn4nc(C(F)(F)F)cc4-c4ccn(C6CC6)c(=O)c4)C5=O)c(Cl)c3)cnc2n1` [Example 165, (R)-2-((1S,3R)-1-(2-chloro-4-(2-methylimidazo[1,2-a]pyrimidin-6-yl)phenyl)-4-oxo-5-azaspiro[2.4]heptan-5-yl)-N-(1-(5-(1-cyclopropyl-2-oxo-1,2-dihydropyridin-4-yl)-3-(trifluoromethyl)-1H-pyrazol-1-yl)-2-methylpropan-2-yl)-3-(1-(difluoromethyl)-1H-pyrazol-4-yl)propanamide], the Emax is reported as 65.7 ± 4.25% and the EC50 is reported as 0.44 nM.
`[2H]C([2H])([2H])n1cc(C[C@H](C(=O)NC(C)(C)Cn2nc(C(F)(F)F)cc2-c2ccc(C(C)(C)OP(=O)(O)O)nc2)N2CC[C@@]3(C[C@@H]3c3ccc(-c4cnc5nn(C)cc5c4)cc3Cl)C2=O)cn1` [Example 195, 2-(5-(1-(2-((R)-2-((1S,3R)-1-(2-Chloro-4-(2-methyl-2H-pyrazolo[3,4-b]pyridin-5-yl)phenyl)-4-oxo-5-azaspiro[2.4]heptan-5-yl)-3-(1-(methyl-d3)-1H-pyrazol-4-yl)propanamido)-2-methylpropyl)-3-(trifluoromethyl)-1H-pyrazol-5-yl)pyridin-2-yl)propan-2-yl dihydrogen phosphate, ammonia salt] showed an Emax of 88.8% and an EC50 of 2.36 nM.
In the case of `Cn1cc2cc(-c3ccc([C@H]4C[C@@]45CCN([C@H](Cc4cnn(C(F)F)c4)C(=O)NC(C)(C)Cn4nc(C(F)(F)F)cc4-c4ccn(C6CC6)c(=O)n4)C5=O)c(Cl)c3)cnc2n1` [Example 161, (R)-2-((1S,3R)-1-(2-chloro-4-(2-methyl-2H-pyrazolo[3,4-b]pyridin-5-yl)phenyl)-4-oxo-5-azaspiro[2.4]heptan-5-yl)-N-(1-(5-(1-cyclopropyl-2-oxo-1,2-dihydropyrimidin-4-yl)-3-(trifluoromethyl)-1H-pyrazol-1-yl)-2-methylpropan-2-yl)-3-(1-(difluoromethyl)-1H-pyrazol-4-yl)propanamide], the Emax is reported as 71.7 ± 1.02% and the EC50 is reported as 1.47 nM.
Compound `Cn1cc2cc(-c3ccc([C@H]4C[C@@]45CCN([C@H](Cc4cnn(C(F)F)c4)C(=O)NC(C)(C)Cn4nc(C(F)(F)F)cc4-c4cnc(N6CCC(=O)CC6)nc4)C5=O)cc3)cnc2n1` [Example 142, (R)-3-(1-(Difluoro-methyl)-1H-pyrazol-4-yl)-N-(2-methyl-1-(5-(2-(4-oxopiperidin-1-yl)pyrimidin-5-yl)-3-(trifluoromethyl)-1H-pyrazol-1-yl)propan-2-yl)-2-((1R,3R)-1-(4-(2-methyl-2H-pyrazolo[3,4-b]pyridin-5-yl)phenyl)-4-oxo-5-azaspiro[2.4]heptan-5-yl)propanamide] has an Emax of 49.9 ± 1.38% and an EC50 of 102 nM.
Work on `CN(C(=O)[C@H]1C[C@@H]1c1ccc(-c2cnc3nn(C(F)(F)F)cc3c2)cc1)[C@H](Cc1cnn(C)c1)C(=O)NC(C)(C)Cn1nc(C(F)(F)F)cc1-c1ccc(=O)n(C)c1` [Example 89, (1S,2S)-N-Methyl-N-((R)-1-((2-methyl-1-(5-(1-methyl-6-oxo-1,6-dihydropyridin-3-yl)-3-(trifluoromethyl)-1H-pyrazol-1-yl)propan-2-yl)amino)-3-(1-methyl-1H-pyrazol-4-yl)-1-oxopropan-2-yl)-2-(4-(2-(trifluoromethyl)-2H-pyrazolo[3,4-b]pyridin-5-yl)phenyl)cyclopropane-1-carboxamide] yielded an Emax of 32.3% and an EC50 of 152 nM.
`Cn1cc(C[C@@H](NC(=O)[C@H]2C[C@@H]2c2ccc(-c3cnc4nn(C)cc4c3)cc2)C(=O)NC(C)(C)Cn2nc(C(F)(F)F)cc2-c2cnn(C3COC3)c2)cn1` [Example 54, (1S,2S)-N-((R)-1-((2-Methyl-1-(1′-(oxetan-3-yl)-5-(trifluoromethyl)-1′H,2H-[3,4′-bipyrazol]-2-yl)propan-2-yl)amino)-3-(1-methyl-1H-pyrazol-4-yl)-1-oxopropan-2-yl)-2-(4-(2-methyl-2H-pyrazolo[3,4-b]pyridin-5-yl)phenyl) cyclopropane-1-carboxamide] was tested, and the Emax was 137 ± 14.1% and the EC50 was 76.8 nM.
In the case of `[2H]C([2H])([2H])N(C(=O)[C@H]1C[C@@H]1c1ccc(-c2cnc3nn(C)cc3c2)nc1C(F)F)[C@H](Cc1cnn(C(F)F)c1)C(=O)NC(C)(C)Cn1nc(C(F)(F)F)cc1-c1cc(F)c(=O)n(C)c1` [Example 137, (1S,2S)-N-((R)-3-(1-(Difluoromethyl)-1H-pyrazol-4-yl)-1-((1-(5-(5-fluoro-1-methyl-6-oxo-1,6-dihydropyridin-3-yl)-3-(trifluoromethyl)-1H-pyrazol-1-yl)-2-methylpropan-2-yl)amino)-1-oxopropan-2-yl)-2-(2-(difluoromethyl)-6-(2-methyl-2H-pyrazolo[3,4-b]pyridin-5-yl)pyridin-3-yl)-N-(methyl-d3)cyclopropane-1-carboxamide], the Emax is reported as 61.7 ± 1.34% and the EC50 is reported as 12.3 nM.
`Cn1cc(-c2cc(C(F)(F)F)nn2CC(C)(C)NC(=O)[C@@H](Cc2cnn(C(F)F)c2)NC(=O)[C@H]2C[C@@H]2c2ccc3c(Cl)nn(C)c3c2)cc(F)c1=O` [Example 183, (1S,2S)-2-(3-chloro-1-methyl-1H-indazol-6-yl)-N-((R)-3-(1-(difluoromethyl)-1H-pyrazol-4-yl)-1-((1-(5-(5-fluoro-1-methyl-6-oxo-1,6-dihydropyridin-3-yl)-3-(trifluoromethyl)-1H-pyrazol-1-yl)-2-methylpropan-2-yl)amino)-1-oxopropan-2-yl)cyclopropane-1-carboxamide] was tested, and the Emax was 4.64 ± 0.608% and the EC50 was 44.9 nM.
Compound `Cn1cc2cc(-c3ccc([C@H]4C[C@@]45CCN([C@H](Cc4cnn(C(F)F)c4)C(=O)NC(C)(C)Cn4nc(C(F)(F)F)cc4-c4ccc(=O)n(CC(F)(F)F)c4)C5=O)cc3)cnc2n1` [Example 125, (R)-3-(1-(Difluoromethyl)-1H-pyrazol-4-yl)-N-(2-methyl-1-(5-(6-oxo-1-(2,2,2-trifluoroethyl)-1,6-dihydropyridin-3-yl)-3-(trifluoromethyl)-1H-pyrazol-1-yl)propan-2-yl)-2-((1R,3R)-1-(4-(2-methyl-2H-pyrazolo[3,4-b]pyridin-5-yl)phenyl)-4-oxo-5-azaspiro[2.4]heptan-5-yl)propanamide] has an Emax of 68.5 ± 6.59% and an EC50 of 38.5 nM.
`Cn1cc(C[C@@H](NC(=O)[C@H]2C[C@@H]2c2ccc(-c3cnc4nn(C)cc4c3)cc2)C(=O)NC(C)(C)Cn2nc(C(F)(F)F)cc2-c2cccc(=O)[nH]2)cn1` [Example 64, (1S,2S)-N—((R)-1-((2-Methyl-1-(5-(6-oxo-1,6-dihydropyridin-2-yl)-3-(trifluoromethyl)-1H-pyrazol-1-yl)propan-2-yl)amino)-3-(1-methyl-1H-pyrazol-4-yl)-1-oxopropan-2-yl)-2-(4-(2-methyl-2H-pyrazolo[3,4-b]pyridin-5-yl)phenyl)cyclopropane-1-carboxamide] showed an Emax of 128% and an EC50 of 61.9 nM.

Reference: patent US20260108546A1 (ELI LILLY AND COMPANY, priority 2024, published 2026)
